From PMC5372594 (International Journal of Molecular Sciences, 2017)
Each block holds one compound with its values, some of them ahead of it. Peptide text beside a SMILES is read from it.

Key:
GLP-1R [1] = target: T1, GLP-1R (Homo sapiens, UniProt P43220); experiment: CHO cell cAMP accumulation assay (ELISA); type: cell-based; settings: 30 min incubation, 0.5 mM IBMX, 3-parameter non-linear regression, n = 3
T1 construct: expressed in transfected cells
Description: CHO cells were stably transfected with GLP-1R and grown in conditions described above. […] After 4-h culture, cells were treated with compounds diluted in assay buffer to concentrations within the 10^−4–10^4 nM range and incubated for 30 min. Cells were lysed by freezing and thawing three times. The samples were then assayed according to the cAMP ELISA assay kit protocol (Jiancheng, Nanjing, China).

trypsin [2] = experiment: Trypsin resistance measured by HPLC (residue rate); type: in vitro ADME
Source text: The substrate was hydrolyzed with trypsin, and the peak area of the sample, which added the stop-buffer at the start point, was set to 100%.

GLP-1R [3] = target: T1, GLP-1R; experiment: CRE-luciferase reporter-gene assay, CHO cells stably expressing human GLP-1 receptor; type: cell-based; settings: 4-h culture with peptide, 10-step 5-fold dilution from 250 nmol/L, mean ± SEM, n = 3
Description: A cyclic adenosine monophosphate response element (CRE)-luciferase based reporter-gene assays, as a surrogate for cyclic adenosine monophosphate (cAMP) formation, were used to measure the abilities of the analogs to activate GLP-1R.
Cells were grown at 37 °C with 5% CO2 in Dulbecco’s modified Eagle’s medium-F12 supplemented with 10% fetal bovine serum (FBS), 4.5 g/L glucose, 100 units/ml penicillin, 100 mg/mL streptomycin, 0.6 mg/mL hygromycin B and 1 mg/mL G418. […] Each well contained 20,000 cells. The initial concentration of each analog and positive control was 250 nmol/L, which was diluted 5 times to produce a 10-step gradient, and each well contained 20 μL. After 4-h culture, 100 μL of a chemical light-emitting substrate was added to each well. Fluorescence was measured with an EnVision 2104 Multilabel Reader (PerkinElmer, Houston, TX, USA) after a 40-min oscillation at 25 °C.

[4] = mouse, in vivo
Description: (§1) Retro orbital blood collections were performed on mice at different time points (0, 1, 2, 3, 4, 6, 8, 10 and 12 h).

in vivo = settings: male, C57BL/6J, mouse
Description: as §1

trypsin [5] = experiment: trypsin; settings: up to 60 min

T1 sequence (P43220 24-463): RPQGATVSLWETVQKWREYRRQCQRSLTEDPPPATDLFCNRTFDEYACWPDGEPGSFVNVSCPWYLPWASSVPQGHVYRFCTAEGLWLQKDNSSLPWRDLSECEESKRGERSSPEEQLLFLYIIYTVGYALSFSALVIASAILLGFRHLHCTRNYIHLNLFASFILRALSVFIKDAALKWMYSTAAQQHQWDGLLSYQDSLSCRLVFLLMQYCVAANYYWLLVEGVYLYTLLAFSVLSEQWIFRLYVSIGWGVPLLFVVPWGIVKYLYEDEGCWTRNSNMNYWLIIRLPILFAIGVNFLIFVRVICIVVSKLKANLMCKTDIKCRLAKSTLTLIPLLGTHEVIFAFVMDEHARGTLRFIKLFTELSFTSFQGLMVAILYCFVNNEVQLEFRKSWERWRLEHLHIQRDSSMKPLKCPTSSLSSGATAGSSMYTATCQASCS

Compound: CC[C@H](C)[C@H](NC(=O)[C@H](Cc1ccccc1)NC(=O)[C@H](CC(C)C)NC(=O)[C@H](CC(C)C)NC(=O)[C@@H](NC(=O)[C@H](C)NC(=O)[C@H](CCC(=O)O)NC(=O)[C@H](CCC(=O)O)NC(=O)[C@H](CCC(=O)O)NC(=O)[C@H](CCSC)NC(=O)[C@H](CCC(N)=O)NC(=O)[C@H](CCSC)NC(=O)[C@H](CO)NC(=O)[C@H](CC(C)C)NC(=O)[C@H](CC(=O)O)NC(=O)[C@H](CO)NC(=O)[C@@H](NC(=O)[C@H](Cc1ccccc1)NC(=O)[C@@H](NC(=O)CNC(=O)[C@H](CCC(=O)O)NC(=O)CNC(=O)[C@@H](N)Cc1c[nH]cn1)[C@@H](C)O)[C@@H](C)O)C(C)C)C(=O)N[C@@H](CCC(=O)O)C(=O)N[C@@H](Cc1c[nH]c2ccccc12)C(=O)N[C@@H](CC(C)C)C(=O)N[C@@H](CCSC)C(=O)N[C@@H](CC(N)=O)C(=O)NCC(=O)NCC(=O)N1CCC[C@H]1C(=O)N[C@@H](CO)C(=O)N[C@@H](CO)C(=O)NCC(=O)N[C@@H](C)C(=O)N1CCC[C@H]1C(=O)N1CCC[C@H]1C(=O)N1CCC[C@H]1C(=O)N[C@@H](CO)C(=O)N[C@@H](CS)C(=O)O [TSME-1] (H-HGEGTFTSDLSMQMEEEAVLLFIEWLMNGGPSSGAPPPSC-OH)
EC50 (GLP-1R [1]): 1.1 nM | Residue rate at 30 min (trypsin [2]): 100% ± 0% | remaining at 1 h (trypsin [2]; isolated enzyme trypsin): 100% | EC50 (GLP-1R [3]): 0.38 nM | Relative bioavailability [4]: 0.881% | Time to peak concentration ([4]; po): An hour | AUC(0-t) (in vivo; po): 0.56 ± 0.15 ng·h/mL | Cmax (in vivo; po, 2.12 mg/kg): 0.2 ± 0.05 ng/mL | AUC(0-t) (in vivo; sc): 3.17 ± 0.72 ng·h/mL

Compound: CC[C@H](C)[C@H](NC(=O)[C@H](Cc1ccccc1)NC(=O)[C@H](CC(C)C)NC(=O)[C@H](Cc1ccc(O)cc1)NC(=O)[C@@H](NC(=O)[C@H](C)NC(=O)[C@H](CCC(=O)O)NC(=O)[C@H](CCC(=O)O)NC(=O)[C@H](CCC(=O)O)NC(=O)[C@H](CCSC)NC(=O)[C@H](CCC(N)=O)NC(=O)[C@H](CCSC)NC(=O)[C@H](CO)NC(=O)[C@H](CC(C)C)NC(=O)[C@H](CC(=O)O)NC(=O)[C@H](CO)NC(=O)[C@@H](NC(=O)[C@H](Cc1ccccc1)NC(=O)[C@@H](NC(=O)CNC(=O)[C@H](CCC(=O)O)NC(=O)CNC(=O)[C@@H](N)Cc1c[nH]cn1)[C@@H](C)O)[C@@H](C)O)C(C)C)C(=O)N[C@@H](CCC(=O)O)C(=O)N[C@@H](Cc1c[nH]c2ccccc12)C(=O)N[C@@H](CC(C)C)C(=O)N[C@@H](CCSC)C(=O)N[C@@H](CC(N)=O)C(=O)NCC(=O)NCC(=O)N1CCC[C@H]1C(=O)N[C@@H](CO)C(=O)N[C@@H](CO)C(=O)NCC(=O)N[C@@H](C)C(=O)N1CCC[C@H]1C(=O)N1CCC[C@H]1C(=O)N1CCC[C@H]1C(=O)N[C@@H](CO)C(=O)N[C@@H](CS)C(=O)O [TSME-4] (H-HGEGTFTSDLSMQMEEEAVYLFIEWLMNGGPSSGAPPPSC-OH)
EC50 (GLP-1R [3]): 31.2 nM

Compound: CC[C@H](C)[C@H](NC(=O)[C@H](Cc1ccccc1)NC(=O)[C@H](CC(C)C)NC(=O)[C@@H](NC(=O)[C@@H](NC(=O)[C@H](C)NC(=O)[C@H](CCC(=O)O)NC(=O)[C@H](CCC(=O)O)NC(=O)[C@H](CCC(=O)O)NC(=O)[C@H](CCSC)NC(=O)[C@H](CCC(N)=O)NC(=O)[C@@H](NC(=O)[C@H](CO)NC(=O)[C@H](CC(C)C)NC(=O)[C@H](CC(=O)O)NC(=O)[C@H](CO)NC(=O)[C@@H](NC(=O)[C@H](Cc1ccccc1)NC(=O)[C@@H](NC(=O)CNC(=O)[C@H](CCC(=O)O)NC(=O)CNC(=O)[C@@H](N)Cc1c[nH]cn1)[C@@H](C)O)[C@@H](C)O)C(C)C)C(C)C)C(C)C)C(=O)N[C@@H](CCC(=O)O)C(=O)N[C@@H](Cc1c[nH]c2ccccc12)C(=O)N[C@@H](CC(C)C)C(=O)N[C@H](C(=O)N[C@@H](CC(N)=O)C(=O)NCC(=O)NCC(=O)N1CCC[C@H]1C(=O)N[C@@H](CO)C(=O)N[C@@H](CO)C(=O)NCC(=O)N[C@@H](C)C(=O)N1CCC[C@H]1C(=O)N1CCC[C@H]1C(=O)N1CCC[C@H]1C(=O)N[C@@H](CO)C(=O)N[C@@H](CS)C(=O)O)C(C)C [TSME-3] (H-HGEGTFTSDLSVQMEEEAVVLFIEWLVNGGPSSGAPPPSC-OH)
EC50 (GLP-1R [3]): 19.2 nM

Compound: CC[C@H](C)[C@H](NC(=O)[C@H](CC(C)C)NC(=O)[C@H](Cc1c[nH]c2ccccc12)NC(=O)[C@H](CCC(=O)O)NC(=O)[C@@H](NC(=O)[C@H](Cc1ccccc1)NC(=O)[C@H](CC(C)C)NC(=O)[C@H](Cc1ccc(O)cc1)NC(=O)[C@@H](NC(=O)[C@H](C)NC(=O)[C@H](CCC(=O)O)NC(=O)[C@H](CCC(=O)O)NC(=O)[C@H](CCC(=O)O)NC(=O)[C@H](CCSC)NC(=O)[C@H](CCC(N)=O)NC(=O)[C@@H](NC(=O)[C@H](CO)NC(=O)[C@H](CC(C)C)NC(=O)[C@H](CC(=O)O)NC(=O)[C@H](CO)NC(=O)[C@@H](NC(=O)[C@H](Cc1ccccc1)NC(=O)[C@@H](NC(=O)CNC(=O)[C@H](CCC(=O)O)NC(=O)CNC(=O)[C@@H](N)Cc1c[nH]cn1)[C@@H](C)O)[C@@H](C)O)[C@@H](C)CC)C(C)C)[C@@H](C)CC)C(=O)N[C@@H](CC(N)=O)C(=O)NCC(=O)NCC(=O)N1CCC[C@H]1C(=O)N[C@@H](CO)C(=O)N[C@@H](CO)C(=O)NCC(=O)N[C@@H](C)C(=O)N1CCC[C@H]1C(=O)N1CCC[C@H]1C(=O)N1CCC[C@H]1C(=O)N[C@@H](CO)C(=O)N[C@@H](CS)C(=O)O [TSME-5] (H-HGEGTFTSDLSIQMEEEAVYLFIEWLINGGPSSGAPPPSC-OH)
EC50 (GLP-1R [3]): 8.83 nM

not cleaved (trypsin [5]): 100% at 60 min
Compound: HGEGTFTSDLSMQMEEEAVLLFIEWLMNGGPSSGAPPPSC
